Here are results for two compounds from patent US11535594B2, “Microbiocidal picolinamide derivatives” (Syngenta Participations AG, priority 2017, dated 2022).

One may read the inhibition as the change of the read-out against control, counted positive when it falls.

The subject of test [1] is Blumeria graminis f. Sp. Tritici (Erysiphe Graminis f. Sp. Tritici). Briefly: Blumeria graminis f. sp. tritici / wheat / leaf disc preventative (powdery mildew on wheat). The class given is in vivo. As to conditions: 200 ppm; wheat leaf segments cv. Kanzler, inoculated 1 day after application, assessed 6-8 days after application, compared to untreated. As for the experimental part: Blumeria graminis f. Sp. Tritici (Erysiphe Graminis f. Sp. Tritici)/Wheat/Leaf Disc Preventative (Powdery Mildew on Wheat)
Wheat leaf segments cv. Kanzler are placed on agar in a multiwell plate (24-well format) and sprayed with the test compound formulated with DMSO and Tween20 and diluted in water. The leaf disks are inoculated by shaking powdery mildew infected plants above the test plates 1 day after application. The inoculated leaf disks are incubated at 20° C. and 60% rh under a light regime of 24 h darkness followed by 12 h light/12 h darkness in a climate chamber and the activity of a compound is assessed as percent disease control compared to untreated when an appropriate level of disease damage appears on untreated check leaf segments (6-8 days after application).

Test [2] relates to Mycosphaerella arachidis (Cercospora arachidicola). Briefly: Mycosphaerella arachidis (Cercospora arachidicola) / liquid culture (early leaf spot). The class given is cell-based. As to conditions: PDB potato dextrose broth, 24° C., 4-5 days after application, compared to untreated checks, read-out: disease control (inhibition of growth, photometric). As for the experimental part: Mycosphaerella arachidis (Cercospora arachidicola)/Liquid Culture (Early Leaf Spot) Conidia of the fungus from cryogenic storage are directly mixed into nutrient broth (PDB potato dextrose broth). After placing a (DMSO) solution of test compound into a microtiter plate (96-well format), the nutrient broth containing the fungal spores is added. The test plates are incubated at 24° C. and the inhibition of growth is determined photometrically 4-5 days after application.

Test [3] concerns Puccinia Recondite f. Sp. Tritici. Nature of the test: Puccinia recondita f. sp. tritici / wheat / leaf disc preventative (brown rust). The following applies: foliar, wheat leaf segments cv. Kanzler, inoculated 1 day after application, assessed 7-9 days after application, compared to untreated, read-out: disease control. It counts as in vivo. As for the experimental part:
Puccinia Recondite f. Sp. Tritici/Wheat/Leaf Disc Preventative (Brown Rust) Wheat leaf segments cv. Kanzler are placed on agar in multiwell plates (24-well format) and sprayed with the formulated test compound diluted in water. The leaf disks are inoculated with a spore suspension of the fungus 1 day after application. The inoculated leaf segments are incubated at 19° C. and 75% rh under a light regime of 12 h light/12 h darkness in a climate cabinet and the activity of a compound is assessed as percent disease control compared to untreated when an appropriate level of disease damage appears in untreated check leaf segments (7-9 days after application).

Test [4] deals with Phaeosphaeria nodorum (Septoria nodorum). Nature of the test: Phaeosphaeria nodorum (Septoria nodorum) / wheat / leaf disc preventative (glume blotch). It counts as in vivo. The following applies: Parastagonospora nodorum, foliar, 120 h, wheat leaf segments cv. Kanzler, inoculated 2 days after application, assessed 5-7 days after application, compared to untreated, read-out: disease control. As for the experimental part: Phaeosphaeria nodorum (Septoria nodorum)/Wheat/Leaf Disc Preventative (Glume Blotch) Wheat leaf segments cv. Kanzler are placed on agar in a multiwell plate (24-well format) and sprayed with the formulated test compound diluted in water. The leaf disks are inoculated with a spore suspension of the fungus 2 days after application. The inoculated test leaf disks are incubated at 20° C. and 75% rh under a light regime of 12 h light/12 h darkness in a climate cabinet and the activity of a compound is assessed as percent disease control compared to untreated when an appropriate level of disease damage appears in untreated check leaf disks (5-7 days after application).

Test [5] deals with Magnaporthe grisea (Pyricularia oryzae). Briefly: whole plant or invertebrate. It counts as in vivo. The following applies: foliar, read-out: disease control.
Test [6] concerns Mycosphaerella Graminicola (Septoria tritici). Nature of the test: Mycosphaerella graminicola (Septoria tritici) / liquid culture (Septoria blotch). It counts as cell-based. As to conditions: Zymoseptoria tritici, PDB potato dextrose broth, 24° C., 4 to 5 days after application, compared to untreated checks, read-out: disease control (inhibition of growth, photometric). The method, then: Mycosphaerella Graminicola (Septoria tritici)/Liquid Culture (Septoria Blotch) Conidia of the fungus from cryogenic storage are directly mixed into nutrient broth (PDB potato dextrose broth). After placing a (DMSO) solution of test compound into a microtiter plate (96-well format), the nutrient broth containing the fungal spores is added. The test plates are incubated at 24° C. and the inhibition of growth is determined photometrically 4 to 5 days after application.

The subject of the next test is Alternaria solani. Briefly: Alternaria solani / tomato / leaf disc (early blight). As to conditions: 200 ppm; tomato leaf disks cv. Baby, inoculated 2 days after application, assessed 5-7 days after application, compared to untreated. The class given is in vivo. As for the experimental part: Alternaria solani/Tomato/Leaf Disc (Early Blight) Tomato leaf disks cv. Baby are placed on agar in multiwell plates (24-well format) and sprayed with the formulated test compound diluted in water. The leaf disks are inoculated with a spore suspension of the fungus 2 days after application. The inoculated leaf disks are incubated at 23° C./21° C.

`COc1ccnc(C(=O)N[C@@H](C)C(=O)ON(C)C(c2ccccc2)c2ccccc2)c1OC(C)=O` [I.m.13, [benzhydryl(methyl)amino] (2S)-2-[(3-acetoxy-4-methoxy-pyridine-2-carbonyl)amino]propanoate]: in test [1], the disease control result is reported as “at least 80%”. Further, the inhibition at 200 ppm in test [2] and in test [6] was at least 80% in each case. Further, the pest or weed control at 200 ppm in test [3], in test [4] and in test [5] was at least 80% each time.

Turning to `COc1ccnc(C(=O)N[C@@H](C)C(=O)ON(C)C(C)(c2ccccc2)c2ccc(Cl)cc2)c1O` (stereo partly drawn) [I.o.02, [[1-(4-chlorophenyl)-1-phenyl-ethyl]-methyl-amino] (2S)-2-[(3-hydroxy-4-methoxy-pyridine-2-carbonyl)amino]propanoate], the inhibition at 200 ppm in test [2] and in test [6] was at least 80% each time. Also, the “control of Alternaria solani” value in the test on Alternaria solani is “at least 80%”. For the same compound, the pest or weed control at 200 ppm in test [3], in test [4] and in test [5] was at least 80% each time.
